In patent US20070275382A1, “Biomarkers for the Efficacy of Somatostatin Analogue Treatment” (priority 2003, published 2007):
*1 amine or outer side, *2 acyl side, *3 side chain or, on linkers, in order; H or OH if unused. Where a SMILES comes first, the peptide text is derived from it. Side-chain parts run from the residue outwards. [ ]: non-standard residue; d: D form. The star is where a group is joined. Ethylenediamine = C(CN[*:2])N[*:1]; Hyp = O=C(O)[CH]1C[CH](O)CN1; Phg = N[CH](C(=O)O)c1ccccc1; CO = O=C([*:1])[*:2]; Bn = c1ccc(C*)cc1

System: Liver left lateral lobe
Assay: Microarray gene expression profiling (HG-U95A), liver
Type: in vivo, cynomolgus monkeys
Experimental: Origin of tissue and processing. Male and female cynomolgus monkeys received subcutaneously pasireotide (100 μg/animal/day) or the vehicle for 14 days. On day 15, all animals were sacrificed and tissues for RNA extraction were immediately snap-frozen and kept at −80° C. until processing.
RNA expression profiling was conducted by means of the HG-U95A gene expression probe array (Affymetrix; Santa Clara, Calif. USA), containing more than 12,600 probe sets interrogating primarily full-length human genes and also some control probe sets. The experiment was conducted according to the recommendations of the manufacturer. Briefly, total RNA was obtained by acid guanidinium thiocyanate-phenol-chloroform extraction (Trizol®, Invitrogen Life Technologies, San Diego, Calif. USA) from each frozen tissue section. The total RNA was then purified on an affinity resin (Rneasy®, Qiagen) and quantified. Double stranded cDNA was synthesized with a starting amount of approximately 5 μg full-length total RNA using the Superscript® Choice System (Invitrogen Life Technologies, Carlsbad, Calif. USA) in the presence of a T7-(dT)24 DNA oligonucleotide primer. Following synthesis, the cDNA was purified by phenol/chloroform/isoamyl alcohol extraction and ethanol precipitation. The purified cDNA was then transcribed in vitro using the BioArray® High Yield RNA Transcript Labeling Kit (ENZO, Farmingdale, N.Y. USA) in the presence of biotinylated ribonucleotides form biotin labelled cRNA. The labelled cRNA was then purified on an affinity resin (Rneasy®, Qiagen), quantified and fragmented. An amount of approximately 10 μg labelled cRNA was hybridized for 16 hours at 45° C. to an expression probe array. The array was then washed and stained twice with streptavidin-phycoerythrin (Molecular Probes,) using the GeneChip® Fluidics Workstation 400 (Affymetrix, Santa Clara, Calif. USA). The array was then scanned twice using a confocal laser scanner (GeneArray® Scanner, Agilent, Palo Alto, Calif. USA) resulting in one scanned image. This resulting “.dat-file” was processed using the MAS4 program (Affymetrix) into a “.cel-file”. The “.cel file” was captured and loaded into the Affymetrix GeneChip® Laboratory Information Management System (LIMS). The LIMS database is connected to a UNIX Sun Solaris server through a network filing system that allows for the average intensities for all probes cells (CEL file) to be downloaded into an Oracle database (NPGN). Raw data was converted to expression levels using a “target intensity” of 150. The data were evaluated for quality control and loaded in the GeneSpring® software 4.2.4 (Silicon Genetics, Calif. USA) for analysis.
On the human Affymetrix HGU95Av2 chip, probe sets for individual genes contain 20 oligonucleotide pairs, each composed of a “perfect match” 25-mer and a “mismatch” 25-mer differing from the “perfect” match oligonucleotide at a single base. After probe labelling, hybridization, and laser scanning, the expression level was estimated by averaging the differences in signal intensity measured by oligonucleotide pairs of a given probe (AvgDiff value). The fold changes and directions were calculated for selected genes, from the differences of the AvgDiff values between controls and treated.
To identify genes that were impacted by pasireotide, the dataset was initially filtered to exclude in a first wave of analysis, genes whose values were systematically in the lower expression ranges where the experimental noise is high (at least 80 in a number of experiments corresponding to the smallest number of replicas of any experimental point). In a second round of selection a threshold p-value of 0.05 (based on a t-test) identified differences between treated and control based on a two component error model (Global Error Model) and, whenever possible, with a stepdown correction for multi-hypothesis testing (Benjamini and Hochberg false discovery rate). […]

[1] = ↑ increase, treated vs controls
[2] = ↓ decrease, treated vs controls

With NCCCCC1NC(=O)C(Cc2c[nH]c3ccccc23)NC(=O)C(c2ccccc2)NC(=O)C2CC(OC(=O)NCCN)CN2C(=O)C(Cc2ccccc2)NC(=O)C(Cc2ccc(OCc3ccccc3)cc2)NC1=O (stereo not drawn) [Pasireotide, cyclo[4-(NH2—C2H4—NH—CO—O)Pro-Phg-DTrp-Lys-Tyr(4-Bzl)-Phe]] (cyclo(F[Hyp]([CO-Ethylenediamine])[Phg]WKY(Bn)); configuration not given here) the “GR expression level, AvgDiff (range)” value (0.1 mg/animal/14day) was 80 (70 to 360), the “IGF-2 expression level, AvgDiff (range)” value (0.1 mg/animal/14day) was 269 (224 to 291) and the “IGFBP2 expression level, AvgDiff (range)” value (0.1 mg/animal/14day) was 4,476 (3,191 to 5,422). For the same molecule, the “Insulin promoter factor 1, homeodomain transcription factor expression level, AvgDiff (range)” value (0.1 mg/animal/14day) was 42 (23 to 52), the “5-hydroxytryptamine (serotonin) receptor 6 RNA expression fold change” value [1] was “receptor 6 ↑ x2.5” and the “Adenylyl cyclase-associated protein RNA expression fold change” value [1] was “↑ x1.5”. The “Arginine vasopressin receptor 2 RNA expression fold change” value [1] was “receptor 2 ↑ x2.5”, the “B lymphoid tyrosine kinase RNA expression fold change” value [1] was “↑ x3.5” and the “Bone-derived GF RNA expression fold change” value [1] was “↑ x3”. For the same molecule, the “Bruton agamma globulinaemia tyrosine kinase RNA expression fold change” value [1] was “↑ x1.5”, the “Butyrate response factor 2 (EGF-response factor 2) RNA expression fold change” value [1] was “factor 2) ↑ x2” and the “Calcium/calmodulin-dependent protein kinase kinase 2, β RNA expression fold change” value [1] was “↑ x3”. For the same molecule, the “Calmodulin 2 (phosphorylase kinase, δ) RNA expression fold change” value [1] was “kinase, δ) ↑ x2”, the “Cdk 5, regulatory subunit 1 RNA expression fold change” value [1] was “subunit 1 ↑ x2.5” and the “Cdki1A (p21/Cip1) RNA expression fold change” value [1] was “(p21/Cip1) ↑ x6”. The “Corticosteroid binding globulin precursor RNA expression fold change” value [1] was “precursor ↑ x2”, the “DAG kinase, α (80 kD) RNA expression fold change” value [1] was “(80 kD) ↑ x3” and the “DAG kinase, δ (130 kD) RNA expression fold change” value [1] was “↑ x1.5”. For the same molecule, the “Dopamine receptor D2 RNA expression fold change” value [1] was “receptor D2 ↑ x3.5”, the “Dopamine receptor D3 RNA expression fold change” value [1] was “receptor D3 ↑ x2” and the “EGFR (avian erythroblastic leukaemia viral (v-erb-b) oncogene homolog) RNA expression fold change” value [1] was “homolog) ↑ x2”. The “FGFR2 (bacteria-expressed kinase, keratinocyte growth factor receptor, craniofacial dysplasia) RNA expression fold change” value [1] was “dysplasia) ↑ x2”, the “Fas-activated serine/threonine kinase RNA expression fold change” value [1] was “kinase ↑ x1.5” and the “GABA (A) receptor, γ2 precursor RNA expression fold change” value [1] was “precursor ↑ x4”. The “GABA(A) receptor-associated protein RNA expression fold change” value [1] was “↑ x1.5”, the “GCSF RNA expression fold change” value [1] was “GCSF ↑ x3.5” and the “Glucacon receptor RNA expression fold change” value [1] was “receptor ↑ x5”. The “Glutamate receptor, metabotropic 4 RNA expression fold change” value [1] was “↑ x1.5”, the “Growth differentiation factor 1 RNA expression fold change” value [1] was “factor 1 ↑ x3” and the “IFN regulatory factor 5 RNA expression fold change” value [1] was “factor 5 ↑ x2.5”. The “IFN-induced leucine zipper protein RNA expression fold change” value [1] was “↑ x1.5”, the “IFN-inducible RNA-dependent protein kinase RNA expression fold change” value [1] was “kinase ↑ x4” and the “IFNγ responsive transcript RNA expression fold change” value [1] was “transcript ↑ x1.5”. For the same molecule, the “IGFBP2 RNA expression fold change” value [1] was “IGFBP2 ↑ x2”, the “IL2 R, γ chain, precursor RNA expression fold change” value [1] was “precursor ↑ x2.5” and the “IP 5-phosphatase RNA expression fold change” value [1] was “phosphatase ↑ x2”. The “Natriuretic peptide receptor A/guanylate cyclase A (atrionatriuretic peptide receptor A) RNA expression fold change” value [1] was “A) ↑ x6”, the “Nck, Ash and PLC γ binding protein NAP4 RNA expression fold change” value [1] was “↑ x3.5” and the “PDGF, α polypeptide RNA expression fold change” value [1] was “polypeptide ↑ x1.5”. The “PDGFR, α polypeptide RNA expression fold change” value [1] was “polypeptide ↑ x2”, the “PI transfer protein RNA expression fold change” value [1] was “protein ↑ x3.5” and the “PKC substrate 80K-H RNA expression fold change” value [1] was 80K-H ↑ x1.5. For the same molecule, the “PLA2, group IIA (platelets, synovial fluid) RNA expression fold change” value [1] was “fluid) ↑ x5.5”, the “PLC, γ 1 (formerly subtype 148) RNA expression fold change” value [1] was 148) ↑ x2 and the “Rb binding protein RNA expression fold change” value [1] was “protein ↑ x2.5”. The “Rb-like 2 (p130) RNA expression fold change” value [1] was “(p130)↑ x3”, the “Receptor (calcitonin) activity modifying protein 1 precursor RNA expression fold change” value [1] was 1 precursor ↑ x1.5 and the “Solute carrier family 9 (sodium/hydrogen exchanger), isoform 3 regulatory factor 1 RNA expression fold change” value [1] was “↑ x11.5”. The “Solute carrier family 11 (Na+/phosphate symporters), member 1 RNA expression fold change” value [1] was “member 1 ↑ x2.5”, the “TGFβ activated kinase-binding protein 1 RNA expression fold change” value [1] was “protein 1 ↑ x2.5” and the “THR interacting protein 15 RNA expression fold change” value [1] was “protein 15 ↑ x1.5”. The “THR sulfo transferase RNA expression fold change” value [1] was “transferase ↑ x2.5”, the “TNF (ligand) superfamily, member 10 RNA expression fold change” value [1] was 10 ↑ x1.5 and the “δ sleep inducing peptide, immunoreactor RNA expression fold change” value [1] was “↑ x2.5”. The “1-PI-4-phosphate 5-kinase isoform C RNA expression fold change” value [2] was “↓ x2”, the “ATPase, H+/K+ exchanging, beta polypeptide RNA expression fold change” value [2] was “polypeptide ↓ x2” and the “BCL2-like 1 RNA expression fold change” value [2] was “↓ x3.5”. For the same molecule, the “Ca++ channel, voltage-dependent, P/Q type, alpha 1A subunit RNA expression fold change” value [2] was “subunit ↓ x2.5”, the “Cdk like-2 RNA expression fold change” value [2] was “Cdk like-2 ↓ x2” and the “Cdki 2D (p19, inhibits CDK4) RNA expression fold change” value [2] was “↓ x2.5”. The “Death-associated protein 6 RNA expression fold change” value [2] was “↓ x2.5”, the “EGF (β-urogastrone) RNA expression fold change” value [2] was “↓ x2.5” and the “EGF-like repeats and discoidin I-like domains 3 RNA expression fold change” value [2] was “domains 3 ↓ x1.5”. The “Fms-related tyrosine kinase 1(VEGF/vascular permeability factor receptor) RNA expression fold change” value [2] was “receptor) ↓ x1.5”, the “GFR-bound protein 2 RNA expression fold change” value [2] was “protein 2 ↓ x2.5” and the “Glycosylphosphatidylinositol specific phospholipase D1 RNA expression fold change” value [2] was “↓ x1.5”. For the same molecule, the “IFN-related developmental regulator 2 RNA expression fold change” value [2] was “regulator 2 ↓ x1.5”, the “IFN-stimulated protein, 15 kDa RNA expression fold change” value [2] was “protein, 15 kDa ↓ x2” and the “IGF-2 RNA expression fold change” value [2] was “IGF-2 ↓ x2.5”. The “Insulin promoter factor 1, homeodomain transcription factor RNA expression fold change” value [2] was “↓ x1.5”, the “PI transfer protein, β RNA expression fold change” value [2] was “protein, β ↓ x1.5” and the “PKC, ι RNA expression fold change” value [2] was “PKC, ι ↓ x1.5”. The “Rb 1 (including osteosarcoma) RNA expression fold change” value [2] was “↓ x2”, the “TGF, β1 RNA expression fold change” value [2] was “TGF, β1 ↓ x1.5” and the “TGFβR III (betaglycan, 300 kδ) RNA expression fold change” value [2] was 300 kδ) ↓ x2. For the same molecule, the “TNF-α converting enzyme RNA expression fold change” value [2] was “enzyme ↓ x2”.
